Experimental data as given in patent publication US20150284342A1, “BIS(FLUOROALKYL)-1,4-BENZODIAZEPINONE COMPOUNDS” (BRISTOL-MYERS SQUIBB COMPANY, priority 2011, published 2015).
pIC50: −log10 of the molar value.

Key:
[1] = test system: ER receptor positive human breast carcinoma xenograft MCF7; assay: Human tumor xenograft model in mice: MCF7 (combination with Tamoxifen); format: in vivo; details: for Tumor Growth Inhibition TGI: target tumor size 500 mg
[2] = test system: human breast carcinoma cell line MDA-MB-157; assay: Human tumor xenograft model in mice: MDA-MB-157; format: in vivo
[3] = test system: human ovarian teratocarcinoma xenograft PA-1; assay: Human tumor xenograft model in mice: PA-1 (combination with carboplatin); format: in vivo
Notch 3 = assay: Notch-CBF1 Transactivation Assay (Notch 3); format: cell-based; details: HeLa cells, luciferase, rounded to 2 digits, read-out: Notch 3 (IC50)
Text: (§1) Table 12 denotes respective DNA quantity for the transfections.
(§2) Duplicates were used for each sample.

[4] = test system: MDA-MB-468 Human Breast Carcinoma; assay: Human tumor xenograft model in mice: MDA-MB-468 (combination with paclitaxel); format: in vivo; details: for Tumor Growth Delay / Tumor Growth Delay (LCK): target tumor size 500 mg
human tumor xenografts = assay: Human Tumor Xenograft Models in Mice (various tumors); format: in vivo; details: for Antitumor Activity (% TGI): PO, QD × 15, 10 day-on-2 day-off, 5-10 mg/kg/adm
[5] = test system: TALL1 Human T-cell acute lymphoblastic leukemia; assay: Human tumor xenograft model in mice: TALL1; format: in vivo
[6] = High Throughput (HT) Metabolic Stability Panel, human liver microsomes; details: human, microsomes, 10 min, 0.5 µM, pH 7.4
Method: (§3) Each compound was tested in duplicate.

[7] = test system: ALL-SIL T-cell lymphoblastic leukemia; assay: Human tumor xenograft model in mice: ALL-SIL (combination with dasatinib); format: in vivo; details: for Tumor Growth Delay / Tumor Growth Delay (LCK): target tumor size 1000 mg
[8] = test system: human T-ALL leukemia xenografts HPB-ALL; assay: Human tumor xenograft model in mice: HPB-ALL (combination with dexamethasone); format: in vivo; details: for Tumor Growth Delay / Tumor Growth Delay (LCK): target tumor size 3000 mg
[9] = High Throughput (HT) Metabolic Stability Panel, mouse liver microsomes; details: mouse, microsomes, 10 min, 0.5 µM, pH 7.4
Method: as §3

Notch 1 = assay: Notch-CBF1 Transactivation Assay (Notch 1); format: cell-based; details: HeLa cells, luciferase, rounded to 2 digits, read-out: Notch 1 (IC50)
Text: as §1, §2

[10] = Example 1 3.75 mg/kg PO, QD ×3, weekly ×3
[11] = 7.5-10 mg/kg, oral, QD × 15, 10 Day-on-2 Day-off
[12] = Example 1 1 mg/kg PO, QD x 21, target tumor size 500 mg
[13] = Example 1 3.75 mg/kg PO, QD x 3, weekly x 7
[14] = Example 1 […] PO, QD x 3, weekly x 7
[15] = Example 1 3.75 mg/kg PO, QD x 3, weekly x 3
[16] = Example 1 […] PO, QD x 3, weekly x 3

For CN1C(=O)[C@@H](NC(=O)[C@H](CCC(F)(F)F)[C@H](CCC(F)(F)F)C(N)=O)N=C(c2ccccc2)c2ccccc21 [Example 1, (2R,3S)—N-((3S)-1-Methyl-2-oxo-5-phenyl-2,3-dihydro-1H-1,4-benzodiazepin-3-yl)-2,3-bis(3,3,3-trifluoropropyl)succinamide], the “CR (%)” value [1, 10] was 0%, the “PR (%)” value [1, 10] was 0% and the “Tumor Growth Inhibition TGI” value [1, 10] was 43%. For the same compound, the “Tumor Growth Inhibition TGI” value ([1]; Example 1 […] PO, QD ×3, weekly ×3) was 58%, the “Antitumor Activity (% TGI)” value ([1]; MCF7, estrogen-dependent breast cancer, single agent, PO, QD × 15, 10 day-on-2 day-off, 5-10 mg/kg/adm) was 73 % TGI and the “CR or PR” value ([1]; single agent) was “no CR or PR”. The “Antitumor Activity MDA-MB-157 (% TGI)” value [2, 11] was 89 % TGI, the “Antitumor Activity (% TGI)” value ([2]; MDA-MB157, TN breast cancer, PO, QD × 15, 10 day-on-2 day-off, 5-10 mg/kg/adm) was 81 % TGI and the “CR (%)” value ([3]; Example 1 1 mg/kg PO, QD x 21) was 0%. For the same compound, the “Cure (%)” value ([3]; Example 1 1 mg/kg PO, QD x 21) was 0%, the “PR (%)” value ([3]; Example 1 1 mg/kg PO, QD x 21) was 0% and the “Tumor Growth Delay” value [3, 12] was 4 days. For the same compound, the “Tumor Growth Delay (LCK)” value [3, 12] was 0.2 LCK, the “antitumor effect (LCK)” value ([3]; Example 1 as a single agent, 1 mg/kg/adm) was 0.2 LCK and the pIC50 (Notch 3) was 8.47. For the same compound, the “CR (%)” value [4, 13] was 0%, the “PR (%)” value [4, 13] was 0% and the “Tumor Growth Delay” value [4, 13] was 7.8 days. For the same compound, the “Tumor Growth Delay (LCK)” value [4, 13] was 0.5 LCK, the “Tumor Growth Delay” value [4, 14] was 21.2 days and the “Tumor Growth Delay (LCK)” value [4, 14] was 1.4 LCK. For the same compound, the “Antitumor Activity (% TGI)” value ([4]; MDA-MB468, TN breast cancer, single agent, PO, QD × 15, 10 day-on-2 day-off, 5-10 mg/kg/adm) was 91 % TGI, the “Antitumor Activity MDA-MB-468 (% TGI)” value ([4]; single agent, 7.5-10 mg/kg, oral, QD × 15, 10 Day-on-2 Day-off) was 78 % TGI and the “Antitumor Activity (% TGI)” value (human tumor xenografts; BT-474, HER2+ breast cancer) was 96 % TGI. The “Antitumor Activity (% TGI)” value (human tumor xenografts; Calu-6, Non small cell lung cancer) was 81 % TGI, the “Antitumor Activity (% TGI)” value (human tumor xenografts; G292, osteogenic sarcoma) was 75 % TGI and the “Antitumor Activity (% TGI)” value (human tumor xenografts; HCT116, colon cancer) was 75 % TGI. The “Antitumor Activity (% TGI)” value (human tumor xenografts; MCF7i, estrogen-independent breast cancer) was 63 % TGI, the “Antitumor Activity (% TGI)” value (human tumor xenografts; Pat-21/Abx R, TN breast cancer (abx R)) was 73 % TGI and the “Antitumor Activity (% TGI)” value (human tumor xenografts; Pat-24, pancreatic cancer) was 111 % TGI. For the same compound, the “Antitumor Activity (% TGI)” value (human tumor xenografts; Pat-26, pancreatic cancer) was 93 % TGI, the “Antitumor Activity (% TGI)” value (human tumor xenografts; Pat-34, ovarian cancer) was 89 % TGI and the “Antitumor Activity (% TGI)” value (human tumor xenografts; Pat-50, ovarian cancer) was 91 % TGI. For the same compound, the “Antitumor Activity (% TGI)” value (human tumor xenografts; SK-N-AS, neuroblastoma) was 67 % TGI, the “Antitumor Activity (% TGI)” value (human tumor xenografts; U-87, glioblastoma multiforme (GBM)) was 82 % TGI and the antitumor activity (human tumor xenografts; oral administration (PO)) was “showed antitumor activity”. The “human cancer xenografts in which significant antitumor activity was demonstrated” value (human tumor xenografts; xenografts grown in mice) was 16, the “Antitumor Activity TALL1 (LCK)” value [5, 11] was >4.7 LCK and the “Antitumor Activity (% TGI)” value ([5]; TALL1, T-Cell acute lymphoblastic leukemia, PO, QD × 15, 10 day-on-2 day-off, 5-10 mg/kg/adm) was 112 % TGI. For the same compound, the antitumor activity ([5]; intravenous route (IV), FIG. 6: TALL1, 5 mg/kg/adm, QD×3, IV) was “exhibited antitumor activity”, the “0.5 μM HLM (% Remaining)” value [6] was 97% and the “CR (%)” value [7, 13] was 0%. The “PR (%)” value [7, 13] was 0%, the “Tumor Growth Delay” value [7, 13] was 8.7 days and the “Tumor Growth Delay (LCK)” value [7, 13] was 0.5 LCK. The “Tumor Growth Delay” value [7, 14] was 1.9 days, the “Tumor Growth Delay (LCK)” value [7, 14] was 0.1 LCK and the “complete response (CR)” value ([7]; single agent) was “none of the single agent produced CR”. For the same compound, the “CR (%)” value [8, 15] was 0%, the “PR (%)” value [8, 15] was 0% and the “Tumor Growth Delay” value [8, 15] was 7.8 days. For the same compound, the “Tumor Growth Delay (LCK)” value [8, 15] was 0.9 LCK, the “Tumor Growth Delay” value [8, 16] was 9.5 days and the “Tumor Growth Delay (LCK)” value [8, 16] was 1.1 LCK. The “antitumor efficacy (LCK)” value ([8]; Example 1 as a single agent at 7.5 mpk) was 1.1 LCK, the “0.5 μM MsLM (% Remaining)” value [9] was 91% and the pIC50 (Notch 1) was 8.80.
